Earlier results in US20250000791A1, “OPHTHALMIC FORMULATION FOR PREVENTING AND/OR TREATING CATARACTS BY EYE DROP ADMINISTRATION” (CHENGDU RUIMU BIOPHARMACEUTICALS CO., LTD., priority 2021, published 2025).
Read-outs that look alike come from different tables or passages of the source.

Experiments:
crystallins = details: lens fragments of cataract patients; lanosterol 0.20 mM, 25-HC 0.25 and 0.50 mM, 37° C., 72 h
[1] = system: cataract nucleus obtained after cataract extraction; details: 25 mM lanosterol solution, 6 days
[2] = 0.5% LAN solution with 15% DMSO, 20% ethanol or polysorbate 80, injected into the vitreous body of rats

Row | SMILES | binding to crystallins / solving cataract (crystallins) | solubility in water | cataract clarity [1] | effect on cataract (animal cataract model; administration by eye drops alone) | effect on cataract (animal cataract model; nanoparticles into the vitreous cavity once every 3 days combined with 25 mM eye drops six times a week, 6 weeks) | effect on lens opacity [2] | effect on the vitreous body [2]
1 | C[C@H](CCCC(C)(C)O)[C@H]1CC[C@H]2[C@@H]3CC=C4C[C@@H](O)CC[C@]4(C)[C@H]3CC[C@]12C [25-hydroxycholesterol] | did not find that lanosterol or 25-hydroxycholesterol can bind to crystallins |  |  |  |  |  | 
2 | CC(C)=CCC[C@@H](C)[C@H]1CC[C@@]2(C)C3=C(CC[C@]12C)[C@@]1(C)CC[C@H](O)C(C)(C)[C@@H]1CC3 [lanosterol] | did not find that lanosterol or 25-hydroxycholesterol can bind to crystallins | low solubility in water | no significant improvement in cataract clarity | cannot treat cataracts | the cataract disappeared | poses a risk of promoting lens opacity | causes vitreous turbidness
